This is an account of results in PMC9329436, “Optimization of the 4-anilinoquin(az)oline scaffold as epidermal growth factor receptor (EGFR) inhibitors for chordoma utilizing a toxicology profiling assay platform” (Scientific Reports, 2022).

Common to all, as to format: biochemical
What all share (settings): singlicate

The target in assay [1] is T1, 320 wild-type protein kinases (Homo sapiens, UniProt Q92630).
T1 sequence (Q92630 1-601): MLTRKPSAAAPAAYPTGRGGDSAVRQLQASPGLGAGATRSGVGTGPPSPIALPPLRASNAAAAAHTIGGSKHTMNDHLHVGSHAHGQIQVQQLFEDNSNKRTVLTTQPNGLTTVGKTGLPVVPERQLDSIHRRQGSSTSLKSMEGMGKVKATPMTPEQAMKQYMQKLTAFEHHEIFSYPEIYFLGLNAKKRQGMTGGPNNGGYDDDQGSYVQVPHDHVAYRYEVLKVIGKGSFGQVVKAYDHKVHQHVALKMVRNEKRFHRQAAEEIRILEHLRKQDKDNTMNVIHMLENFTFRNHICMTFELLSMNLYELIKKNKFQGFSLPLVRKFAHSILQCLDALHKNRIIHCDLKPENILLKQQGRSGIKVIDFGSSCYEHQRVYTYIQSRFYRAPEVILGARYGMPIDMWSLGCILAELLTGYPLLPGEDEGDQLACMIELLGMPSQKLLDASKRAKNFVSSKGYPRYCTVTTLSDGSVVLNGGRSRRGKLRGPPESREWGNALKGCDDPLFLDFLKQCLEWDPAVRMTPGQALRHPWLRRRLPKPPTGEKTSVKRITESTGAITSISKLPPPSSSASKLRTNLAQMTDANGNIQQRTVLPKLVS
From the text: (§1) Table S4. Profiling of two compounds at two concentrations against 320 wild-type protein kinases; singlicate measurement; Residual activities (% of control).

Assay [2] concerns the target T2, 320 wild-type protein kinases (Homo sapiens, UniProt Q16566).
T2 sequence (Q16566 1-473): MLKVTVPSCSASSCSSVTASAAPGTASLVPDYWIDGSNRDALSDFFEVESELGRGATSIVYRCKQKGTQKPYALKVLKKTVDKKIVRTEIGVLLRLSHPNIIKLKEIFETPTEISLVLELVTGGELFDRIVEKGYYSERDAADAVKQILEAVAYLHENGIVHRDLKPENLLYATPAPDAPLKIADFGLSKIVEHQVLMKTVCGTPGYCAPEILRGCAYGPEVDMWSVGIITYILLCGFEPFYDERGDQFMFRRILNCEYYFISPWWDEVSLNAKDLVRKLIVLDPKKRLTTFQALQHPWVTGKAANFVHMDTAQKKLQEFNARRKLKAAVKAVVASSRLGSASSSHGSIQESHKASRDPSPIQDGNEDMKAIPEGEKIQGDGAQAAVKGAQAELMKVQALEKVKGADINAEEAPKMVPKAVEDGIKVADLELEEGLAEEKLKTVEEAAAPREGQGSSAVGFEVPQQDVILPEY
Description: as §1

Assay [3] deals with 320 wild-type protein kinases (Homo sapiens, UniProt P51957).
Description: as §1

Assay [4] concerns the target T3, 320 wild-type protein kinases (Homo sapiens, UniProt Q99683).
T3 sequence (Q99683 1-1374): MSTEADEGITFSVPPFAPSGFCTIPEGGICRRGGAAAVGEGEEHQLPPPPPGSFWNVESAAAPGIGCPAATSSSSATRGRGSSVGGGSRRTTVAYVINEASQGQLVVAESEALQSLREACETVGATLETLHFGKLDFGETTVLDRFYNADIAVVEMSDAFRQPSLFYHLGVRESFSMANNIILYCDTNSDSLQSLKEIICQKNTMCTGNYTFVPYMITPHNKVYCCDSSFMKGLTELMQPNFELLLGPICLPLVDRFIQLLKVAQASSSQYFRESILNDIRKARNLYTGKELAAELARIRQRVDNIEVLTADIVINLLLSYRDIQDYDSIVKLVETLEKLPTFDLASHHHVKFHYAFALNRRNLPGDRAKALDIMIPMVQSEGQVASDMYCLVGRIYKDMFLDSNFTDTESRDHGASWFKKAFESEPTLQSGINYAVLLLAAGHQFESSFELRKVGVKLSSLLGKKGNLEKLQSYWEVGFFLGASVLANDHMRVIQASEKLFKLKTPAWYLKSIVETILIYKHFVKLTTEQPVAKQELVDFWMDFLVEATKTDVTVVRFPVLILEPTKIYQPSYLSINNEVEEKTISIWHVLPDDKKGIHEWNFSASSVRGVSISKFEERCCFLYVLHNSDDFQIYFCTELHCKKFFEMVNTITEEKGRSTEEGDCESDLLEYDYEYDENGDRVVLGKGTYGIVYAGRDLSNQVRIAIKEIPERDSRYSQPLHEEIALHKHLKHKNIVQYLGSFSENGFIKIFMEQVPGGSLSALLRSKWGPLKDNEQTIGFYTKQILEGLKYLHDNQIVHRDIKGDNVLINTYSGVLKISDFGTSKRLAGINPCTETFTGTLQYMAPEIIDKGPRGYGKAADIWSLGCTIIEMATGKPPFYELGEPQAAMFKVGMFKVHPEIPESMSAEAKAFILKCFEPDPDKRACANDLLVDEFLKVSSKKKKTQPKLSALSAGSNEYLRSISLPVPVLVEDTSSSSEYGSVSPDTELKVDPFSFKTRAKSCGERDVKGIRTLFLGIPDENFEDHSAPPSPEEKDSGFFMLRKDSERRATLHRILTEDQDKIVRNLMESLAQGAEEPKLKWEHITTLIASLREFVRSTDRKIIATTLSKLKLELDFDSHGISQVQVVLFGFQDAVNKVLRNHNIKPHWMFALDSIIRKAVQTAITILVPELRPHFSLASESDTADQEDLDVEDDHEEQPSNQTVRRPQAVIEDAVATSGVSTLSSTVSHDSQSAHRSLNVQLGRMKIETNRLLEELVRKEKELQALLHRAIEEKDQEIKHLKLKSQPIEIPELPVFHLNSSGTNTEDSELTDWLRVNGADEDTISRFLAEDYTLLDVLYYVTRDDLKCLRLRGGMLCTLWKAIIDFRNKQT
Description: as §1

Where two headings read alike, the source gives them in different places.

320 wild-type protein kinases (Homo sapiens, UniProt P51957), sequence (P51957 whole entry): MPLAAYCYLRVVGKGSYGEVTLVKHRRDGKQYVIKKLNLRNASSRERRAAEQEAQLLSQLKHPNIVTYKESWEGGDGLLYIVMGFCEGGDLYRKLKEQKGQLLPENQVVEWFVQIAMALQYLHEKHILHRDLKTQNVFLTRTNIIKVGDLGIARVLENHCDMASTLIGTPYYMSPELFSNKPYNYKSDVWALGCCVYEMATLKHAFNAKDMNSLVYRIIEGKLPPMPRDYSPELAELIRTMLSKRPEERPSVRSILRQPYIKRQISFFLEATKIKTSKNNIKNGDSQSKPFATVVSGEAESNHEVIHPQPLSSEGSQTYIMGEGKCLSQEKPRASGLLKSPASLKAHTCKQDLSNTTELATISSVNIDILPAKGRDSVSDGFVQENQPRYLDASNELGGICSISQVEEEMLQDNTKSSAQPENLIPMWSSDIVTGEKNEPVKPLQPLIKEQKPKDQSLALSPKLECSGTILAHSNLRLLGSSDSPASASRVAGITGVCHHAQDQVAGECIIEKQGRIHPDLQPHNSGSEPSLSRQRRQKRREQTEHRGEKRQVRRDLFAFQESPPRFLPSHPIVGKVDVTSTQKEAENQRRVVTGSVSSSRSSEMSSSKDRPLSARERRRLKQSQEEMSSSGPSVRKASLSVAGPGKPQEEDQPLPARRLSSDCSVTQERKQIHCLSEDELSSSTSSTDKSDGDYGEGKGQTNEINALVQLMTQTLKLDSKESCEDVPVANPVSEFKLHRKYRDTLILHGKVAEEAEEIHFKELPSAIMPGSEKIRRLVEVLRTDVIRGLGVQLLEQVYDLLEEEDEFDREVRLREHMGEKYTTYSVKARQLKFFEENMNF

For the molecule `C#Cc1cc(Nc2ncnc3cc(OC)c(OC)cc23)ccc1Cl` [Compound 45], the Residual activity is given as 71 % of control in assay [1] (DYRK2, 1.0E-06 M); 89 % of control in assay [1] (DYRK2, 1.0E-07 M); 89 % of control in assay [2] (CAMK4, 1.0E-06 M); 84 % of control in assay [2] (CAMK4, 1.0E-07 M); 84 % of control in assay [3] (NEK4, 1.0E-06 M); 106 % of control in assay [3] (NEK4, 1.0E-07 M). For the same molecule, the Residual activity was 99 % of control in assay [4] (ASK1, 1.0E-06 M) and 93 % of control in assay [4] (ASK1, 1.0E-07 M).
Consider `C#Cc1cc(Nc2ncnc3cc(I)ccc23)ccc1Cl` [Compound 41], for which the Residual activity in assay [1] (DYRK2, 1.0E-06 M) is 61 % of control; in assay [1] (DYRK2, 1.0E-07 M) it was 84 % of control; in assay [2] (CAMK4, 1.0E-06 M) it was 91 % of control; in assay [2] (CAMK4, 1.0E-07 M), 84 % of control; in assay [3] (NEK4, 1.0E-06 M), 94 % of control; in assay [3] (NEK4, 1.0E-07 M), 100 % of control. Further, the Residual activity is 99 % of control in assay [4] (ASK1, 1.0E-06 M) and 95 % of control in assay [4] (ASK1, 1.0E-07 M).
